Results reported in US10077464B2, “Micro-organism detection medium comprising at least one alkyl(thio)glycoside” (Biomérieux, priority 2012, dated 2018).

Experiments:
[1] = system: Microorganisms of the genus Salmonella; assay: Detection of salmonellae, all strains of Example 1; type: cell-based; settings: alkylglycoside in place of Tween 20, Example 1
Procedure: A stock solution of the enzyme substrate 5-bromo-6-chloro-3-indoxyl caprylate (magenta-C8) is made in a DMSO-type solvent. A volume of this stock solution which makes it possible to obtain a final substrate concentration of 360 mg/L is then added into flasks respectively containing Tween 20 (final concentration 6 g/L), n-octyl-β-D-glucopyranoside (OG) to final concentrations of 0.7, 2 and 6 g/L, and n-dodecyl-β-D-maltoside (DM) to the same concentrations. The different solutions are agitated and the volumes are introduced into supercooled agar media (chromID® Salmonella media).
Microorganisms of the genus Salmonella from the Applicant's collection were seeded on each of the aforementioned media in accordance with the three-dial technique from bacterial suspensions calibrated to 0.5 McF. The strains were selected for their low to average expression of esterase activity, giving low to average violet coloration intensities on the chromID® Salmonella medium marketed by bioMérieux (under the references 43621 and 43629).
The dishes were incubated for 24 h at 37° C. Then the colonies which formed were examined visually after 24 h of incubation. The coloration intensities were recorded.

[2] = system: P. aeruginosa and A. baumannii; assay: Detection of P. aeruginosa and A. baumannii, all strains of Example 2; type: cell-based
Procedure: Two stock solutions at 25 g/L of ALDOL™ 470-nonanoate (ALDOL 470-C9, developed by Biosynth AG, Rietlisstrasse 4,9422 Staad, Switzerland) and of ALDOL™ 495-nonanoate (ALDOL 495-C9, also developed by Biosynth AG, Rietlisstrasse 4,9422 Staad, Switzerland) are made in a DMSO-type organic solvent. Then a volume corresponding to a final concentration of enzyme substrates of 200 mg/L is added into flasks containing respectively: Tween 20 (final concentration in the medium of 6 g/L), and DM (final concentrations of 0.7, 2 and 6 g/L). The different flasks are vigorously agitated, then all of the contents are added into the supercooled agar media: TSA (trypticase soy agar) base.
Bacteria from the Applicant's collection were seeded on each of the aforementioned media in accordance with the three-dial technique from bacterial suspensions calibrated to 0.5 McF. The dishes were incubated for 24 h at 37° C. and the colonies formed were analysed visually. Thus, the colorations and the coloration intensities were recorded.

Structure (SMILES): CCCCCCCCCCCCO[C@@H]1O[C@H](CO)[C@@H](O[C@H]2O[C@H](CO)[C@@H](O)[C@H](O)[C@H]2O)[C@H](O)[C@H]1O [DM, n-dodecyl-β-D-maltoside]
- Esterase activity detection sensitivity in Salmonella [1]: improve the esterase activity detection sensitivity in Salmonella
- Detection of the strains tested ([2]; replacement of the Tween 20 at 6 g/L by DM at the same concentration, whatever the enzyme substrate): detect all of the strains tested
- Detection of the esterase activity of the microorganisms ([2]; substitution of Tween 20 by DM, Example 2): improves the detection of the esterase activity of the microorganisms

Structure (SMILES): CCCCCCCCO[C@@H]1O[C@H](CO)[C@@H](O)[C@H](O)[C@H]1O [OG, n-octyl-β-D-glucopyranoside]
- Esterase activity detection sensitivity in Salmonella [1]: improve the esterase activity detection sensitivity in Salmonella
